In paper PMC4051426 (Biochemistry, 2014):

Target: triosephosphate isomerase from chicken muscle (cTIM), loop 6 replacement mutant (L6RM) (Gallus gallus, UniProt P00940, V167P/W168E)
Assay: steady-state kinetics of isomerization
Format: biochemical

triosephosphate isomerase from chicken muscle (cTIM), loop 6 replacement mutant (L6RM), sequence (P00940 2-248 V167P/W168E): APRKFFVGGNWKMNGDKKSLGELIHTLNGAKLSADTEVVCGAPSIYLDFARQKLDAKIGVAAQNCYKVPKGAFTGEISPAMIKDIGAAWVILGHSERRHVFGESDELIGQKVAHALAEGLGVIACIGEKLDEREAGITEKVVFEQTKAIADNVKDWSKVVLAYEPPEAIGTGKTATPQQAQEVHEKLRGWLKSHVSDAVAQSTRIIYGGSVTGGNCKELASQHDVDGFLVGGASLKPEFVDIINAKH

O=C[C@H](O)COP(=O)(O)O [GAP, (R)-glyceraldehyde 3-phosphate]
kcat/Km (M^-1 s^-1): 470 M^–1 s^–1 (kcat/Km)
